# Like-named read-outs stand apart in the source and are kept apart here.
# How the values were obtained:
# [1] = target: T1, Ba/F3 cells containing Ros1 wild-type protein (Homo sapiens, UniProt P08922, cells depend on it, form not given); test: Ba/F3-Ros1 cell proliferation assay, wild-type Ros1; type: cell-based, murine; details: without IL-3
# T1 construct: The background only speaks of 'a number of different unrelated proteins' and names SLC34A2-ROS1 for HCC78 cells
# In short: (§1)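 Alamar Blue read-out (resazurin, ex. 540 nm, em. 590 nm, 4 h at 37 °C) after 24 h compound exposure of 20000 Ba/F3-Ros1 cells per well. Cells carry WT, gatekeeper L2026M or crizotinib-resistant G2032R Ros1; medium RPMI-1640, 10% FBS, 2 mM L-Glutamine.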
# [2] = test system: Ros pY2274 in HCC78 cells; test: pROS1 immunofluorescence assay in HCC78 cells; type: cell-based; details: Homo sapiens; HCC78 cells, 4 hours, Ros pY2274 normalized to total Ros1; read-out: HCC78-pRos1 pIC50 (converted)
# Method: pROS1 Immunofluorescence Assay in HCC78 Cells
# Approximately 20000 HCC78 non-small cell lung cancer cells in 180 μl of cell culture medium (RPMI-1640, 10% FBS, 2 mM L-Glutamine, 10 mM Hepes, 1 mM sodium pyruvate, 4.5 g/L glucose, 1.5 g/L sodium bicarbonate, 25 μg/ml Gentamycin) were seeded in each well of a 96-well polystyrene, poly-D-lysine coated plate and incubated at 37° C. and 5% CO2. After 24 hours, compounds were diluted in cell culture medium from which 20 μl was added to the wells containing cells and incubated for 4 hours at 37° C. and 5% CO2. The medium was removed and the cells were fixed by adding 100 μl of 5% formaldehyde in TBS (tris-buffered saline) (50 mM Tris.HCl, pH 7.4, 150 mM NaCl) and incubating for 15 minutes at room temperature. The formaldehyde was removed and replaced with methanol for 10 minutes at room temperature, after which the cells were washed 3 times with TBS containing 1% Triton X-100 and incubated in Odyssee (Li-Cor) blocking buffer for 1 hour at room temperature. The cells were then incubated with the primary rabbit antibody directed against Ros pY2274 (cst-3078) diluted 1/200 in blocking buffer for 24 hours at room temperature. The cells were washed three times with TBS containing 0.1% Triton X-100 and incubated with a secondary anti-rabbit antibody conjugated to the fluorescent dye Alexafluor 680 in blocking buffer for 1 hour at room temperature. The cells were washed three times with TBS containing 0.1% Triton X-100 and left to dry before measuring RFUs (Relative Fluorescence Units) at 700 nm using a fluorescence imager.
# The same experiment was performed using total Ros1 antibody (sc-6347) diluted 1/1000 instead of Ros1 pY2274 antibody and an anti-goat antibody conjugated to IRDye800cw as a secondary antibody. RFUs were measured at […]. The signals from total Ros1 detection were used to normalize the Ros1 pY2274 values.
# [3] = test system: HCC78 non-small cell lung cancer cells; test: HCC78 cell proliferation assay; type: cell-based; details: Homo sapiens, HCC78, 96 h, read-out: HCC-78 PROL pEC50 (converted)
# In short: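 HCC78 NSCLC cells (~1000/well) in RPMI-1640 with 10% FBS were treated 24 h after seeding and exposed to compound for 4 days at 37 °C. Viability was read by MTT, with absorbance at 538 nm after DMSO/glycine solubilization.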
# [4] = test system: Ba/F3 cells containing Ros1 wild-type protein + IL-3; test: Ba/F3-Ros1 cell proliferation counter-screen, wild-type protein in the presence of 10 ng/ml murine IL-3; type: cell-based; details: Mus musculus, BaF3, 24 h, read-out: BaF3-ROS1 + IL3 pIC50 (converted)
# In short: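 Compounds were dispensed from DMSO into plates, and 20000 Ba/F3 cells carrying wild-type Ros1 were added in phenol red-free RPMI-1640 with 10% FBS plus 10 ng/ml murine IL-3. After 24 h at 37 °C, Alamar Blue was added for 4 h and fluorescence recorded.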
# Ros1 enzyme = target: T2, Ros1 enzyme (Homo sapiens, UniProt P08922); test: Ros1 enzymatic assay; type: biochemical
# T2 construct: 0.5 μg/ml Ros1 enzyme
# In short: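 First, compounds meet Ros1 enzyme mix plus substrate mix containing IRS-Tide and 33P-labelled ATP at 20 μM. Next, incubation lasts 120 minutes at room temperature. Then EDTA stop buffer with streptavidin beads is added for 15 minutes, and bead-bound radioactivity is imaged.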
# [5] = target: Ba/F3 cells containing Ros1 with a mutation at the gatekeeper residue (L2026M) (Homo sapiens, UniProt P08922, L2026M, cells depend on it, form not given); test: Ba/F3-Ros1 cell proliferation assay, L2026M gatekeeper mutant; type: cell-based, murine; details: without IL-3
# In short: as §1
# [6] = Ros1 enzymatic assay, read-out: ROS1 pIC50 (converted)
# T2 sequence (P08922 28-2347): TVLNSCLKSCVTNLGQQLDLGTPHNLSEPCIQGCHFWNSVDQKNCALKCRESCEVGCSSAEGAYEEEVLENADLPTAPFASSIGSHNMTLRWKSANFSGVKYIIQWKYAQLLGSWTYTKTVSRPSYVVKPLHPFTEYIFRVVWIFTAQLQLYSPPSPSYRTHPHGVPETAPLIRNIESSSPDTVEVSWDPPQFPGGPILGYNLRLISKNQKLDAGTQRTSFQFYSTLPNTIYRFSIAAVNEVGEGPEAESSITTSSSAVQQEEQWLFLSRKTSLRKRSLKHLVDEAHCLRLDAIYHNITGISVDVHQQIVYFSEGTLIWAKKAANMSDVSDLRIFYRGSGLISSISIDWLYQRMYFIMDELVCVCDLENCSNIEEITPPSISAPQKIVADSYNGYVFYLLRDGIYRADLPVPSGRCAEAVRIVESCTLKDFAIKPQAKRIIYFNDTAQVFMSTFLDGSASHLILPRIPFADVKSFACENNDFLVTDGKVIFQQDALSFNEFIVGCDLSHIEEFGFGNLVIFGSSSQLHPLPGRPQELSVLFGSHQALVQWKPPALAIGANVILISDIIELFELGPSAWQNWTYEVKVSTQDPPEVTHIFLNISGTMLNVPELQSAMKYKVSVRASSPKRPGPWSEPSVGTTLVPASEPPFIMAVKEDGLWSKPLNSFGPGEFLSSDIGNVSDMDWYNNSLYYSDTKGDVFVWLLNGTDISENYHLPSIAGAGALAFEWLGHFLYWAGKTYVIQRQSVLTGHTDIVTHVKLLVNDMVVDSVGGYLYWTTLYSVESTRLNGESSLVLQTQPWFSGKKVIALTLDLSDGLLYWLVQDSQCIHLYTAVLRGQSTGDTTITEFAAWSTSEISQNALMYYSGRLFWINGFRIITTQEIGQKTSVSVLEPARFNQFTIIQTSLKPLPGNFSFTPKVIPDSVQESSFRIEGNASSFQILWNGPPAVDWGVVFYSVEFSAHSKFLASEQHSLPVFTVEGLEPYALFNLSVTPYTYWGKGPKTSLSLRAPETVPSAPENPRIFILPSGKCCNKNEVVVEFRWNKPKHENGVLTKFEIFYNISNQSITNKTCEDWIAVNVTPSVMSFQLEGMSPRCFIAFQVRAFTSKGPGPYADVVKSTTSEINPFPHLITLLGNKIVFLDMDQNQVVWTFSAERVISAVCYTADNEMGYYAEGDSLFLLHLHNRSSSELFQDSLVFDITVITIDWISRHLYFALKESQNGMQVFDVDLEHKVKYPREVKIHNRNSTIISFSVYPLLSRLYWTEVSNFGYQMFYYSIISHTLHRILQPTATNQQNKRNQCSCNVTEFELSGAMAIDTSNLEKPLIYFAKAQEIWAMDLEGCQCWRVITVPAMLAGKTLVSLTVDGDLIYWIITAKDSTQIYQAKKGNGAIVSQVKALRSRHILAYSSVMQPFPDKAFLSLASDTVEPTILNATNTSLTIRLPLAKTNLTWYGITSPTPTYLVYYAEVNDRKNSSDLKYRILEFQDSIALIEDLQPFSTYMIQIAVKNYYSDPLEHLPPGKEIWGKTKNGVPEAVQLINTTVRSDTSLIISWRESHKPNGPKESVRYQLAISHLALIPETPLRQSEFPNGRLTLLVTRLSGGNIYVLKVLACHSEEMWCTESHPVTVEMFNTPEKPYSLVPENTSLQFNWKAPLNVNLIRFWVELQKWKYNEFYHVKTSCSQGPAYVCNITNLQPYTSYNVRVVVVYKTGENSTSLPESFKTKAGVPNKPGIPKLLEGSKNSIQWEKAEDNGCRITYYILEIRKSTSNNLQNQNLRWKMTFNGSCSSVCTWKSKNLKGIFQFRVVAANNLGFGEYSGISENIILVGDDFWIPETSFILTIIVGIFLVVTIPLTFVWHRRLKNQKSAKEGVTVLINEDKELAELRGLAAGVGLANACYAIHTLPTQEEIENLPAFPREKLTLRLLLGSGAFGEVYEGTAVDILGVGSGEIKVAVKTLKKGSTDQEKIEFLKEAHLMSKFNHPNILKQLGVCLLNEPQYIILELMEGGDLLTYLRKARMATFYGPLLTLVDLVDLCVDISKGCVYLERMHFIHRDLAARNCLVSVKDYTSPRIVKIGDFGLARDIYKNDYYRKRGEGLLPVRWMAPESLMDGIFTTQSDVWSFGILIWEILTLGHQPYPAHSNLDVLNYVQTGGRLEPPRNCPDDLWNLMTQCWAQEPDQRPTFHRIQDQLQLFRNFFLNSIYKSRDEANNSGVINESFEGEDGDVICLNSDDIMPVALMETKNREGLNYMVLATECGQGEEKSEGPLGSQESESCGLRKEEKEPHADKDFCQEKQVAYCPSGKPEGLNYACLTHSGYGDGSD
# Ba/F3 cells containing Ros1 with a mutation at the gatekeeper residue (L2026M), sequence (P08922 whole entry L2026M, form open): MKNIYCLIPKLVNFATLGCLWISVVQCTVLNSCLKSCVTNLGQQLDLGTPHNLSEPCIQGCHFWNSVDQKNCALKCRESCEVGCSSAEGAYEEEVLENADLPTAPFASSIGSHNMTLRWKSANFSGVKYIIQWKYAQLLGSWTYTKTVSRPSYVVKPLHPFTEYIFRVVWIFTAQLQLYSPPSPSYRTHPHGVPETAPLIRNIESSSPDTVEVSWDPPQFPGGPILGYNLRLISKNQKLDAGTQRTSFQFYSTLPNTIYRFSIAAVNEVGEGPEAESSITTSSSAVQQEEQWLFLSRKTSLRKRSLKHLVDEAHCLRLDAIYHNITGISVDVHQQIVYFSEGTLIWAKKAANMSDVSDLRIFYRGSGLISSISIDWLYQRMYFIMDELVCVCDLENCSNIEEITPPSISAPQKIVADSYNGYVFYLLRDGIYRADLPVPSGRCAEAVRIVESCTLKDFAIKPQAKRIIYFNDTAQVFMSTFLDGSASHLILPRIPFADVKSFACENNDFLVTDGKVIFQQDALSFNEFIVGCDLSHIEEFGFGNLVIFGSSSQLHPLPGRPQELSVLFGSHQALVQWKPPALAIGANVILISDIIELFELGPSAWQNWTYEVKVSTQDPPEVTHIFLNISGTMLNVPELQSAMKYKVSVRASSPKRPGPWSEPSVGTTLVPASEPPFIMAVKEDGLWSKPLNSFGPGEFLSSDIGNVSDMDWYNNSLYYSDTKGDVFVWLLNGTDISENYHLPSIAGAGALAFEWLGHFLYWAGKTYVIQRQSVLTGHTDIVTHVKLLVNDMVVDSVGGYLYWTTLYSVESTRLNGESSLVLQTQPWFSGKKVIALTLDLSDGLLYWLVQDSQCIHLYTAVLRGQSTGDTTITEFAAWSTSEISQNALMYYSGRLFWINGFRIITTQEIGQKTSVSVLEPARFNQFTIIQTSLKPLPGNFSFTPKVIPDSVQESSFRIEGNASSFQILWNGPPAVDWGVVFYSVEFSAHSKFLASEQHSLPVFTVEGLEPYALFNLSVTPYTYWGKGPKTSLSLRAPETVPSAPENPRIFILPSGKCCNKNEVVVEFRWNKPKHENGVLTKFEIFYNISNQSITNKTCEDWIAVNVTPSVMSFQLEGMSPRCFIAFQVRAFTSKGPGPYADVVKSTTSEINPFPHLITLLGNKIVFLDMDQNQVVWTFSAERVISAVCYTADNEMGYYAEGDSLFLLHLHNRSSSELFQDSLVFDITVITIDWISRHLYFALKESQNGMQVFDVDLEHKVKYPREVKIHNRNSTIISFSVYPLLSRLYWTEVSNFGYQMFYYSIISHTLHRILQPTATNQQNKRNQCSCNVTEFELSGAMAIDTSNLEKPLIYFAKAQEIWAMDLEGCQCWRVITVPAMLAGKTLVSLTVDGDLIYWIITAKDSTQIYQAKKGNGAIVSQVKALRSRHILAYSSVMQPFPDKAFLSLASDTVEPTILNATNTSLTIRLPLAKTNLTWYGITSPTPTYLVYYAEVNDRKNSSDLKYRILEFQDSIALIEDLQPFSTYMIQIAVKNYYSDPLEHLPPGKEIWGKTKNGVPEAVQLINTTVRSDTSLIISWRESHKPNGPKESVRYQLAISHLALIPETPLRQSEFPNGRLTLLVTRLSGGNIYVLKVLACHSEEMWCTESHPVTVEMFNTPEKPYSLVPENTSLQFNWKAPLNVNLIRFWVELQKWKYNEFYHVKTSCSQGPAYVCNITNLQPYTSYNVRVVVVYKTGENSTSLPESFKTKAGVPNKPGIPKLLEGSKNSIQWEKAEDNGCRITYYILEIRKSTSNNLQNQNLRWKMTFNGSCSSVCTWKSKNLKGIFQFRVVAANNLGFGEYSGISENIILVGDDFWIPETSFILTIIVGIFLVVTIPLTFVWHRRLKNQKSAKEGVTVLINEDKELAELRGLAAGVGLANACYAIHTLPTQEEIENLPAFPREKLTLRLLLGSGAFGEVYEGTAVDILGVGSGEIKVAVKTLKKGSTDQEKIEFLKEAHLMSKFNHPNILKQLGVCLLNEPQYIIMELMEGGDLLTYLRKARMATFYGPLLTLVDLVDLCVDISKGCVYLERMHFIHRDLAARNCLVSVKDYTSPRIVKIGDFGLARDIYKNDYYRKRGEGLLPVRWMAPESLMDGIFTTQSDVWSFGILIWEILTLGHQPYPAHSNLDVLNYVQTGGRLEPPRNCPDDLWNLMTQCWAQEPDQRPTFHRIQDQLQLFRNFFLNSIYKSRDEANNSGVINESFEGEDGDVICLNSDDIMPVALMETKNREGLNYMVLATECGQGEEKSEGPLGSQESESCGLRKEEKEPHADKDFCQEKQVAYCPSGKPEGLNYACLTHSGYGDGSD
# T1 sequence (P08922 whole entry, stated change not applied): as the sequence (P08922 whole entry L2026M, form open) above, with M2026L counted along it
SMILES,BaF3-ROS1-IL3 pIC50 [1],IC50 [2] [nM],"EC50 ([3]; HCC78 cells, 4 days, MTT) [nM]","CC50 ([4]; counter-screen, wild-type, 10 ng/ml murine IL-3) [nM]",IC50 (Ros1 enzyme; [6]) [nM],melting point [°C],EC50 [3] [nM],CC50 [4] [nM],Ba/F3 Ros1 L2026M (-IL-3) pIC50 [5],"IC50 (Ros1 enzyme; ROS1 pIC50, Ros1 enzymatic assay) [nM]"
CC(C)c1ccc(COc2ccc(-c3c(-c4ccncc4)nn4c3CN(C(=O)CN(C)C)CC4)cc2)cc1 [Compound 181],5.7,1260,2000,5010,794,,,,,
O=C1c2c(-c3ccc(OCc4ccc(C5CC5)c(F)c4)cc3)c(-c3ccncc3)nn2CCN1CCO [Compound 137],6.8,,,,126,185,398,> 10000,6.4,
O=C1c2c(-c3ccc(OCc4ccc(C5CC5)cc4F)cc3)c(-c3ccncc3)nn2CCN1CCO [Compound 136],7.1,,,,63.1,183,316,> 10000,6.6,
CC(C)c1ccc(CC(=O)c2ccc(-c3c(-c4ccncc4)nn4c3C(=O)NCC4)cc2)cc1 [Compound 148],5.5,,,,6310,259,1580,> 10000,5.9,
CC(C)c1ccc(C2CCc3cc(-c4c(-c5ccncc5)nn5c4C(=O)NCC5)ccc3O2)cc1 (centres unmarked) [Compound 199],7.1,,,,200,262,1260,> 10000,7.5,
O=C1c2c(-c3ccc(OCc4ccc(OC(F)(F)F)cc4)cc3)c(-c3ccncc3)nn2CCN1CCO [Compound 117],7.0,,,,126,134,251,> 10000,6.9,
CC(C)c1ccc(COc2ccc(-c3c(-c4ccncc4)nn4c3C(=O)N(CCS(C)(=O)=O)CC4)cc2)cc1 [Compound 52],7.6,,,,50.1,219,251,> 10000,6.9,
CC(C)c1ccc(COc2ccc(-c3c(-c4ccncc4)nn4c3C(=O)N(CCO)CC4)cc2)cc1O [Compound 79],7.8,,,,25.1,236,2510,> 10000,7.3,
CC(C)c1ccc(COc2ccc(-c3c(-c4ccncc4C#N)nn4c3C(=O)NCC4)cc2)cc1 [Compound 153],7.5,,,,39.8,225,316,> 10000,6.8,
Cc1ccc(COc2ccc(-c3c(-c4ccncc4)nn4c3C(=O)NCC4)cc2)cc1 [Compound 105],7.0,,,,126,259,158,> 10000,6.6,
CCOP(=O)(CCN1CCn2nc(-c3ccncc3)c(-c3ccc(OCc4ccc(C(C)C)cc4)cc3)c2C1=O)OCC [Compound 68],6.7,,,,,90,2510,2510,6.5,316

# Reference: patent US10280170B2, “Substituted 4,5,6,7-tetrahydro-pyrazolo[1,5-a]pyrazine derivatives and 5,6,7,8-tetrahydro-4H-pyrazolo[1,5-a][1,4]diazepine derivatives as Ros1 inhibitors” (Janssen Pharmaceutica NV, priority 2014, dated 2019)
